Measurements: patent US9364480B2, “Pharmaceutical composition for preventing or treating cancer, containing enoblock as active ingredient” (GWANGJU INSTITUTE OF SCIENCE AND TECHNOLOGY, priority 2012, dated 2016)

Tested on: HCT116 colon carcinoma cells
Assay: Screening for apoptosis inducers effective under hypoxia (MTT cytotoxicity, hypoxia vs normoxia)
Assay type: cell-based
Description: FIG. 1. Discovery of compound AP-III-a4 (ENOblock). (a) Schematic of the screening system used to detect apoptosis inducers effective under hypoxia. HCT116 cancer cells were seeded in parallel 96-well culture plates. Hypoxia was induced in one plate using 150 μM cobalt chloride treatment. Triazine library compound at 5 μM concentration was added 4 h later, and cell death was determined 24 h after hypoxia induction. […] (b) Chemical structures of AP-III-a4 (ENOblock) and the control compounds, AP-IV-e3 and AP-I-f10. Chemical structures of GAPDS, which targets glyceraldehyde 3-phosphate dehydrogenase (GAPDH), and rosiglitazone, a well-known anti-diabetes drug, are also shown. […] Error=SD; *=P value<0.05 for increased cell death compared to normoxia. P value: hypox 10=1.23×10^−6; hypox 5=2.38×10^−6; hypox 2.5=1.16×10^−5; hypox 1.25=0.000334. (d) Representative phase contrast microscopic images of HCT116 colon cancer cells treated with ENOblock under normoxia or hypoxia.
HCT116 colon carcinoma cells were seeded in 2 sets of 96 well plates at a density of 5×10^3 cells per well. ‘Low glucose’ DMEM (containing 5 mM glucose; Invitrogen, OR, USA) was used for screening, because glycolysis inhibitors, such as 2-Deoxy-D-glucose (2-DG), are effective by competing with glucose. 24 h later, the hypoxic condition was induced in one set of 96 well plates by treatment with 150 μM of 0.22 μm filtered CoCl2 and the culture media volume was reduced by 50% (to 100 μL/well), as previously described.^49 4 h later, test compounds from a tagged triazine library^5 were screened at a concentration of 5 μM in duplicate wells. Cytotoxicity was determined by MTT assay 24 h after adding drug. ‘Hits’ for further analysis were classified as compounds that 25% or higher cytotoxicity in the hypoxia condition compared to the normoxia condition (as measured by MTT assay absorbance). 50 μM 2-DG, an inhibitor of glycolysis that selectively kills cancer cells in hypoxic conditions^50, was used as a positive control.
We developed a novel, dual screening system to identify molecules that preferentially kill cancer cells in a hypoxic environment (FIG. 1). A small molecule library of 384 triazines prepared on a solid support5 (5; FIG. 3) was screened. A “hit” molecule was defined as an inducer of at least 25% increased cancer cell toxicity in hypoxia compared to normoxia (as determined using the 3-(4,5-dimethylthiazol-2-yl)-2,5-diphenyltetrazolium bromide, a tetrazole (MTT) assay). Five from 384 triazines screened produced greater cancer cell toxicity under hypoxia.

NCCOCCOCCNC(=O)Cc1ccc(Nc2nc(NCc3ccc(F)cc3)nc(NCC3CCCCC3)n2)cc1 [ENOblock]
cell viability of cancer cells cultured under hypoxia (FIG. 1c-1d): reduced cell viability dose-dependently
hit classification in triazine library screen (25% or greater cell death under hypoxia compared to normoxia) (HCT116, 5 μM compound, 24 h, MTT): best performing hit molecule
cell death in hypoxic conditions compared to normoxia (HCT116, hypoxia by 150 μM cobalt chloride, MTT, FIG. 1c): higher levels of HCT116 colon cancer cell death in hypoxic conditions (Hypox) compared to normoxia
trypan blue uptake (cell death) (under hypoxia): increased trypan blue uptake under hypoxia
